From patent publication US20160135464A1, “PESTICIDAL COMPOSITIONS AND PROCESSES RELATED THERETO” (Dow AgroSciences LLC, priority 2014, published 2016)

Experiments:
Assay type in all cases: in vivo
[1] = system: Beet Armyworm (BAW) (Spodoptera exigua); assay: Bioassay on beet armyworm (BAW), 128-well diet tray assay, percent mortality; conditions: for pest or weed control at 50 µg/cm2, 50 µg/cm2: Spodoptera exigua, 50 μg/cm^2
Protocol: (§1) Certain molecules disclosed in this document were tested against BAW and CEW using procedures described in the following examples. In the reporting of the results, the “BAW & CEW Rating Table” was used (See Table Section).
Bioassays on BAW (Spodoptera exigua)
Bioassays on BAW were conducted using a 128-well diet tray assay. One to five second instar BAW larvae were placed in each well (3 mL) of the diet tray that had been previously filled with 1 mL of artificial diet to which 50 μg/cm^2 of the test compound (dissolved in 50 μL of 90:10 acetone-water mixture) had been applied (to each of eight wells) and then allowed to dry. Trays were covered with a clear self-adhesive cover and held at 25° C., 14:10 light-dark for five to seven days. Percent mortality was recorded for the larvae in each well; activity in the eight wells was then averaged. The results are indicated in the table entitled “Table 5: Biological Results” (See Table Section).

[2] = system: Corn Earworm (CEW) (Helicoverpa zea); assay: Bioassay on corn earworm (CEW), 128-well diet tray assay, percent mortality; conditions: for pest or weed control at 50 µg/cm2, 50 µg/cm2: Helicoverpa zea, 50 μg/cm^2
Protocol: as §1
Bioassays on CEW (Helicoverpa zea)
Bioassays on CEW were conducted using a 128-well diet tray assay. One to five second instar CEW larvae were placed in each well (3 mL) of the diet tray that had been previously filled with 1 mL of artificial diet to which 50 μg/cm^2 of the test compound (dissolved in 50 μL of 90:10 acetone-water mixture) had been applied (to each of eight wells) and then allowed to dry. Trays were covered with a clear self-adhesive cover and held at 25° C., 14:10 light-dark for five to seven days. Percent mortality was recorded for the larvae in each well; activity in the eight wells was then averaged. The results are indicated in the table entitled “Table 5: Biological Results” (See Table Section).

[3] = system: Green Peach Aphid (GPA) (Myzus persicae); assay: Bioassay on green peach aphid (GPA), foliar spray on cabbage seedlings, corrected % control; conditions: 72 h, read-out: % Mortality GPA 200 ppm
Protocol: Certain molecules disclosed in this document were tested against GPA using procedures described in the following example. In the reporting of the results, the “GPA Rating Table” was used (See Table Section).
Cabbage seedlings grown in 3-inch pots, with 2-3 small (3-5 cm) true leaves, were used as test substrate. The seedlings were infested with 20-50 GPA (wingless adult and nymph stages) one day prior to chemical application. Four pots with individual seedlings were used for each treatment. Test compounds (2 mg) were dissolved in 2 mL of acetone/methanol (1:1) solvent, forming stock solutions of 1000 ppm test compound. […] A hand-held aspirator-type sprayer was used for spraying a solution to both sides of […] leaves until runoff. Reference plants (solvent check) were sprayed with the diluent only containing 20% by volume of acetone/methanol (1:1) solvent. Treated plants were held in a holding room for three days at approximately 25° C. and ambient relative humidity (RH) prior to grading. Evaluation was conducted by counting the number of live aphids per plant under a microscope.
Corrected % Control=100*(X−Y)/X • where • X=No. of live aphids on solvent check plants and • Y=No. of live aphids on treated plants
The results are indicated in the table entitled “Table 5: Biological Results” (See Table Section).

Compound | pest or weed control at 50 µg/cm2, 50 µg/cm2 [1] [%] | pest or weed control at 50 µg/cm2, 50 µg/cm2 [2] [%] | pest or weed control at 200 ppm [3] [%] | % Mortality BAW 50 μg/cm^2 [1] | % Mortality CEW 50 μg/cm^2 [2]
Cc1cccc(C)c1N1CCS/C1=N\N=C\c1ccc(-c2ncn(-c3ccc(OC(F)(F)F)cc3)n2)cc1 [Compound 141C] | 50 to 100 | 50 to 100 | – | – | –
COc1cc(C)c(N2C(=O)CS/C2=N\N=C\c2ccc(-c3ncn(-c4ccc(OC(F)(F)F)cc4)n3)cc2)c(C)c1 [Compound 69C] | 50 to 100 | 50 to 100 | – | – | –
CC(C)c1cccc(F)c1N1/C(=N/N=C/c2ccc(-c3ncn(-c4ccc(OC(F)(F)F)cc4)n3)cc2)SCC1(C)O (stereo not drawn) [Compound 250C] | 50 to 100 | 50 to 100 | 0 to 80 | – | –
Cc1cccc(Cl)c1N1/C(=N/N=C/c2ccc(-c3ncn(-c4ccc(OC(F)(F)F)cc4)n3)cc2)SCC1(C)O (stereo not drawn) [Compound 244C] | 50 to 100 | 50 to 100 | – | – | –
CCN(CC)c1ccc(-c2cs/c(=N\N=Cc3ccc(-c4ncn(-c5ccc(OC(F)(F)F)cc5)n4)cc3)n2-c2c(C)cccc2C)cc1 [Compound 74C, 4-((2Z)-3-(2,6-dimethylphenyl)-2-((4-(1-(4-(trifluoromethoxy)phenyl)-1H-1,2,4-triazol-3-yl)benzylidene)hydrazono)-2,3-dihydrothiazol-4-yl)-N,N-diethylaniline] | 50 to 100 | 50 to 100 | – | – | –
CCc1ccccc1N1/C(=N/N=C/c2ccc(-c3ncn(-c4ccc(OC(F)(F)F)cc4)n3)cc2)SCC1(C)O (stereo not drawn) [Compound 254C] | 50 to 100 | 50 to 100 | 0 to 80 | – | –
CC1S/C(=N\N=C\c2ccc(-c3ncn(-c4ccc(OC(F)(F)F)cc4)n3)cc2)N(c2c(F)cccc2Cl)C1=O (stereo not drawn) [Compound 130C] | 50 to 100 | 50 to 100 | – | – | –
CCc1cc(OC)ccc1N1/C(=N/N=C/c2ccc(-c3ncn(-c4ccc(OC(F)(F)C(F)(F)F)cc4)n3)cc2)SCC1(C)O (stereo not drawn) [Compound 264C] | 50 to 100 | – | – | – | –
CC(C)c1ccccc1N1/C(=N/N=C/c2ccc(-c3ncn(-c4ccc(OC(F)(F)F)cc4)n3)cc2)SCC1(O)c1ccccc1C(F)(F)F (stereo not drawn) [Compound 263C] | 50 to 100 | 50 to 100 | 0 to 80 | – | –
CC(C)c1cc(F)c(F)cc1N1/C(=N/N=C/c2ccc(-c3ncn(-c4ccc(OC(F)(F)F)cc4)n3)cc2)SCC1(C)O (stereo not drawn) [Compound 259C] | 50 to 100 | 50 to 100 | – | – | –
Cc1ccc(N2/C(=N/N=C/c3ccc(-c4ncn(-c5ccc(OC(F)(F)F)cc5)n4)cc3)SCC2(C)O)c(C(C)C)c1 (stereo not drawn) [Compound 251C] | 50 to 100 | 50 to 100 | 0 to 80 | – | –
Cc1ccccc1-n1c(C)cs/c1=N\N=C\c1ccc(-c2ncn(-c3ccc(OC(F)(F)F)cc3)n2)cc1 [Compound 173C] | 50 to 100 | 50 to 100 | – | – | –
COc1ccc(N2C(=O)CS/C2=N\N=C\c2ccc(-c3ncn(-c4ccc(OC(F)(F)F)cc4)n3)cc2)cc1 [Compound 114C] | 50 to 100 | 50 to 100 | – | – | –
CC(C)c1ccccc1N1/C(=N/N=C/c2ccc(-c3ncn(-c4ccc(OC(F)(F)C(F)(F)F)cc4)n3)cc2)SCC1(C)O (stereo not drawn) [Compound 262C] | 50 to 100 | 50 to 100 | 0 to 80 | – | –
Cc1cccc(N2/C(=N/N=C/c3ccc(-c4ncn(-c5ccc(OC(F)(F)F)cc5)n4)cc3)SCC2(C)O)c1C(C)C (stereo not drawn) [Compound 252C] | 50 to 100 | 50 to 100 | – | – | –
CCCc1ccccc1N1/C(=N/N=C/c2ccc(-c3ncn(-c4ccc(OC(F)(F)F)cc4)n3)cc2)SCC1(C)O (stereo not drawn) [Compound 256C] | 50 to 100 | 50 to 100 | 0 to 80 | – | –

Compound | pest or weed control at 50 µg/cm2, 50 µg/cm2 [1] [%] | pest or weed control at 50 µg/cm2, 50 µg/cm2 [2] [%] | pest or weed control at 200 ppm [3] [%] | % Mortality BAW 50 μg/cm^2 [1] | % Mortality CEW 50 μg/cm^2 [2]
CC(C)c1cc(F)ccc1N1/C(=N/N=C/c2ccc(-c3ncn(-c4ccc(OC(F)(F)F)cc4)n3)cc2)SCC1(C)O (stereo not drawn) [Compound 258C] | 50 to 100 | 50 to 100 | – | – | –
CC(C)c1ccccc1N1/C(=N/N=C/c2ccc(-c3ncn(-c4ccc(C(F)(C(F)(F)F)C(F)(F)F)cc4)n3)cc2)SCC1(C)O (stereo not drawn) [Compound 260C] | 50 to 100 | 50 to 100 | – | – | –
CC(C)c1ccccc1N1/C(=N/N=C/c2ccc(-c3ncn(-c4ccc(C(F)(F)F)cc4)n3)cc2)SCC1(C)O (stereo not drawn) [Compound 261C] | 50 to 100 | 50 to 100 | – | – | –
CCC(C)c1ccccc1N1/C(=N/N=C/c2ccc(-c3ncn(-c4ccc(OC(F)(F)F)cc4)n3)cc2)SCC1(O)C(F)(F)F (stereo not drawn) [Compound 247C] | 50 to 100 | 50 to 100 | – | – | –
CC(C)c1ccccc1N1C(=NN=Cc2ccc(-c3ncn(-c4ccc(OC(F)(F)F)cc4)n3)cc2)SCC1(O)C(F)(F)F (stereo in doubt) [Compound 246C, (Z)-3-(2-isopropylphenyl)-2-((E)-(4-(1-(4-(trifluoromethoxy)phenyl)-1H-1,2,4-triazol-3-yl)benzylidene)hydrazono)-4-(trifluoromethyl)thiazolidin-4-ol] | 50 to 100 | 50 to 100 | – | – | –
COCCOC(C)C(=O)OCS/C(=N\c1c(C)cc(OC)cc1C)N/N=C/c1ccc(-c2ncn(-c3ccc(OC(F)(F)F)cc3)n2)cc1 (stereo not drawn) [Compound 42C] | 50 to 100 | 50 to 100 | – | – | –
CC(C)c1ccccc1N1/C(=N/N=C/c2ccc(-c3ncn(-c4ccc(OC(F)(F)F)cc4)n3)cc2)SC(C)C1(C)O (stereo not drawn) [Compound 257C] | 50 to 100 | 50 to 100 | – | – | –
CC1(O)CS/C(=N\N=C\c2ccc(-c3ncn(-c4ccc(OC(F)(F)F)cc4)n3)cc2)N1c1c(F)cccc1F (stereo not drawn) [Compound 240C] | 50 to 100 | 50 to 100 | – | – | –
CC(C)c1ccccc1N1CCCCC/S1=N\N=C\c1ccc(-c2ncn(-c3ccc(OC(F)(F)F)cc3)n2)cc1 (stereo not drawn) [Compound 212C] | 50 to 100 | 50 to 100 | – | – | –
CC1(O)CS/C(=N\N=C\c2ccc(-c3ncn(-c4ccc(OC(F)(F)F)cc4)n3)cc2)N1c1ccccc1C1CCCC1 (stereo not drawn) [Compound 249C] | 50 to 100 | 50 to 100 | – | – | –
COCCOC(C)C(=O)OCS/C(=N\c1c(C)cccc1C)N/N=C/c1ccc(-c2ncn(-c3ccc(OC(F)(F)F)cc3)n2)cc1 (stereo not drawn) [Compound 41C] | 50 to 100 | 50 to 100 | – | – | –
Cc1cccc(C)c1/N=C(/N/N=C/c1ccc(-c2ncn(-c3ccc(OC(F)(F)F)cc3)n2)cc1)SCC#C[Si](C)(C)C [Compound 9C] | – | – | – | A (50-100) | A (50-100)
COc1cc(C)c(/N=C(/N/N=C/c2ccc(-c3ncn(-c4ccc(OC(F)(F)C(F)(F)F)cc4)n3)cc2)SCC(=O)O)c(C)c1 [Compound 50C] | 50 to 100 | 50 to 100 | – | – | –
Cc1ccc(C(C)C)c(N2/C(=N/N=C/c3ccc(-c4ncn(-c5ccc(OC(F)(F)F)cc5)n4)cc3)SCC2(C)O)c1 (stereo not drawn) [Compound 253C] | 50 to 100 | 50 to 100 | – | – | –
COc1cc(C)c(N2/C(=N/N=C/c3ccc(-c4ncn(-c5ccc(OC(F)(F)F)cc5)n4)cc3)SCC2(C)O)c(C)c1 (stereo not drawn) [Compound 255C] | 50 to 100 | 50 to 100 | – | – | –
CC1(O)CS/C(=N\c2c(Cl)cccc2C(F)(F)F)N1/N=C/c1ccc(-c2ncn(-c3ccc(OC(F)(F)F)cc3)n2)cc1 (stereo not drawn) [Compound 241C, (Z)-2-((2-chloro-6-(trifluoromethyl)phenyl)imino)-4-methyl-3-((E)-(4-(1-(4-(trifluoromethoxy)phenyl)-1H-1,2,4-triazol-3-yl)benzylidene)amino)thiazolidin-4-ol] | 50 to 100 | 50 to 100 | – | – | –
